Experimental data as given in publication PMC9989926, “Zebrafish and medaka T1R (taste receptor type 1) proteins mediate highly sensitive recognition of L‐proline” (FEBS Open Bio, 2023).

What was measured:
mfT1R2a/mfT1R3 = target: T1, mfT1R2a/mfT1R3 (Oryzias latipes, UniProt Q2MHK2+Q2MHK5); test: FLIPR Calcium […] cell-based calcium assay, FlexStation […]
T1 construct: gene TAS1R2a; entire coding regions, stably co-expressed with chimeric G-protein G16gust44 in Flp-In 293 cells; heterodimer; with Taste receptor type 1 member 3
T1 sequence (Q2MHK2 entry or part of it): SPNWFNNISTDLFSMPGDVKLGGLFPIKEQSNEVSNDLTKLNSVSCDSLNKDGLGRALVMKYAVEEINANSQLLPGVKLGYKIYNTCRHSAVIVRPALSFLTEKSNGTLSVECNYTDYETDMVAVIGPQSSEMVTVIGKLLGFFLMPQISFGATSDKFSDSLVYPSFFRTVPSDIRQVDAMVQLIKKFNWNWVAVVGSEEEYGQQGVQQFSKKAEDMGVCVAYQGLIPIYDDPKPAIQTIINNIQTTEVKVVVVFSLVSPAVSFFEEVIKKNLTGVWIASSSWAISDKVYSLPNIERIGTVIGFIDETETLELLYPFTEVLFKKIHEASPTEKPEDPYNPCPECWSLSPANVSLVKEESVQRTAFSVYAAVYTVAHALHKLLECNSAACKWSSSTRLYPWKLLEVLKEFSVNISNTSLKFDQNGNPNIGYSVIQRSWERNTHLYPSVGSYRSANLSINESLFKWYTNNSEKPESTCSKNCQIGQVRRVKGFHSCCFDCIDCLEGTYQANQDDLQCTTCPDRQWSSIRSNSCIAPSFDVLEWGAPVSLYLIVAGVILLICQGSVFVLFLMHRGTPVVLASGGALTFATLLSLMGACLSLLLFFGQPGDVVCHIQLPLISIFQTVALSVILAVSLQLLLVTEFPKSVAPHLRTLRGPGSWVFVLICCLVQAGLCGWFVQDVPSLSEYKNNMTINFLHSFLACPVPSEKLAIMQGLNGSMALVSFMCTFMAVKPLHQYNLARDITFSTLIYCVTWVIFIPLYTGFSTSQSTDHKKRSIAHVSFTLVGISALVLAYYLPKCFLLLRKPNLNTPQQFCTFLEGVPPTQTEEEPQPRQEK
T1 sequence (Q2MHK5 entry or part of it): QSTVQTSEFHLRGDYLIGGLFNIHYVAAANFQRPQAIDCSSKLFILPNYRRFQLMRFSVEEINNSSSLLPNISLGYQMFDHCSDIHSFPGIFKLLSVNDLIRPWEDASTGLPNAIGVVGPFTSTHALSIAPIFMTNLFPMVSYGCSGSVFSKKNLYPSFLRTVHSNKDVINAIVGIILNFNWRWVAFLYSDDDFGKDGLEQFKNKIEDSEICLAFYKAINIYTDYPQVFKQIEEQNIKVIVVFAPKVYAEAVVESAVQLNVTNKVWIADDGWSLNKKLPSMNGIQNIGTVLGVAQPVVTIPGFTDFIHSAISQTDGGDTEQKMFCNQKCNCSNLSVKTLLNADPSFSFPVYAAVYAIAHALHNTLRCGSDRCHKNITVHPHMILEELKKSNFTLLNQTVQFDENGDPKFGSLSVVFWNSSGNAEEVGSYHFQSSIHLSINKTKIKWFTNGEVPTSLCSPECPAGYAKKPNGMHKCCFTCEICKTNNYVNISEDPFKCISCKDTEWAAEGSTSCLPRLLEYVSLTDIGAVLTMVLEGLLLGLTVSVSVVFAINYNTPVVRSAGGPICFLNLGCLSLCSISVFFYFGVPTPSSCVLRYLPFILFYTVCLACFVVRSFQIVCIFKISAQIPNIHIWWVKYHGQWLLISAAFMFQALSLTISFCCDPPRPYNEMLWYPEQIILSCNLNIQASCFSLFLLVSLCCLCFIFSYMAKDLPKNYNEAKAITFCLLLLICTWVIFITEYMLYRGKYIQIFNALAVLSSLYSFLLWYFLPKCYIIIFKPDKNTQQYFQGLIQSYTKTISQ

mfT1R2b/mfT1R3 = target: T2, mfT1R2b/mfT1R3 (Oryzias latipes, UniProt Q2MHK2+Q2MHK4); test: as above
T2 construct: gene TAS1R2b; entire coding regions, stably co-expressed with chimeric G-protein G16gust44 in Flp-In 293 cells; heterodimer; with Taste receptor type 1 member 3
T2 sequence (Q2MHK4 entry or part of it): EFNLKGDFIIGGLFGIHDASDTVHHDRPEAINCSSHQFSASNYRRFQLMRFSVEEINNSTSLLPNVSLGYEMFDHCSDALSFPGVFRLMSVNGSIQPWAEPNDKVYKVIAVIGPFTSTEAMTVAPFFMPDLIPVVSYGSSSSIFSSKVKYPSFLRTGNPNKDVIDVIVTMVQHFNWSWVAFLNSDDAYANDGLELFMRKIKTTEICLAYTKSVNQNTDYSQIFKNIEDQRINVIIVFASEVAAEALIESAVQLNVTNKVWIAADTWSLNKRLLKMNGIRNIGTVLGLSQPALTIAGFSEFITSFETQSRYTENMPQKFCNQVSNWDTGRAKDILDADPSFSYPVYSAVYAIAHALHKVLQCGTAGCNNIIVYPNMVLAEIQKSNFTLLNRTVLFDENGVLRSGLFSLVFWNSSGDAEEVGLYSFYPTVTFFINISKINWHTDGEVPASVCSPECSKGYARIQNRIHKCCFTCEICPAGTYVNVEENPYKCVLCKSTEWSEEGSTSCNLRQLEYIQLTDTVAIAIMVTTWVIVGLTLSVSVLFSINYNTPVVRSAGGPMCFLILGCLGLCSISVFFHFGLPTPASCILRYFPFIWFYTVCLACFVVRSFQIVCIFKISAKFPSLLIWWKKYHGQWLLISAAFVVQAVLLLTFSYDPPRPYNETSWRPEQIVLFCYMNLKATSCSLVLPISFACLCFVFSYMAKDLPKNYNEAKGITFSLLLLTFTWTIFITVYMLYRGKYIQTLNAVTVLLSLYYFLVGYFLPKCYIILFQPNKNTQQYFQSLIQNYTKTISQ
T2 sequence (Q2MHK2 entry or part of it): as the sequence (Q2MHK2 entry or part of it) above

zfT1R2a/zfT1R3 = target: T3, zfT1R2a/zfT1R3 (Danio rerio, UniProt Q2MHK9+Q2MHL1, Q2MHK9:Y247H); test: as above
T3 construct: gene tas1r2.1; entire coding regions, stably co-expressed with chimeric G-protein G16gust44 in Flp-In 293 cells; heterodimer; T1R3 clone Y247H (C741T); with Taste receptor type 1 member 3
T3 sequence (Q2MHL1 26-825): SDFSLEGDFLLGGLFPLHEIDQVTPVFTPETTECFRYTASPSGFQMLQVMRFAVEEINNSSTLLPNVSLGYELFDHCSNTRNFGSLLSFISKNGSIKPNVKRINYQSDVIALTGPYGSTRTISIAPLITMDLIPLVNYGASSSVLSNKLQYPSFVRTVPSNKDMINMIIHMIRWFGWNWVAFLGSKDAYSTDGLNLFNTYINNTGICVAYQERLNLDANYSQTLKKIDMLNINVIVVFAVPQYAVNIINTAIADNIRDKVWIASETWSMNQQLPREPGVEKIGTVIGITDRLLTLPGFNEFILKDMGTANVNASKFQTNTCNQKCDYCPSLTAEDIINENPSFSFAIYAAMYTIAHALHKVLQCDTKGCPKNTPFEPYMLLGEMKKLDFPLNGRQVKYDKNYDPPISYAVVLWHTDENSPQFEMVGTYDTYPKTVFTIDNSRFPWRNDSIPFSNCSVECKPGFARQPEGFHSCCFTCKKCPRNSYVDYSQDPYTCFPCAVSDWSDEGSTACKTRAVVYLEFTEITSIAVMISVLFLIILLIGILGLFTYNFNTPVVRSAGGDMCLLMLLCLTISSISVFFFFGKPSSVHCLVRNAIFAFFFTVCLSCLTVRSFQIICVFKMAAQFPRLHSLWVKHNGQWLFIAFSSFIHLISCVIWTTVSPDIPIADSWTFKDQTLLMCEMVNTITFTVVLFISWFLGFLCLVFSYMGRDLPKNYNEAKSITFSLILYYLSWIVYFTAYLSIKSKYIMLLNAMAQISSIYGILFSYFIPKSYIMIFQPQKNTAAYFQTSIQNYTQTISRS
T3 sequence (Q2MHK9 25-850 Y247H): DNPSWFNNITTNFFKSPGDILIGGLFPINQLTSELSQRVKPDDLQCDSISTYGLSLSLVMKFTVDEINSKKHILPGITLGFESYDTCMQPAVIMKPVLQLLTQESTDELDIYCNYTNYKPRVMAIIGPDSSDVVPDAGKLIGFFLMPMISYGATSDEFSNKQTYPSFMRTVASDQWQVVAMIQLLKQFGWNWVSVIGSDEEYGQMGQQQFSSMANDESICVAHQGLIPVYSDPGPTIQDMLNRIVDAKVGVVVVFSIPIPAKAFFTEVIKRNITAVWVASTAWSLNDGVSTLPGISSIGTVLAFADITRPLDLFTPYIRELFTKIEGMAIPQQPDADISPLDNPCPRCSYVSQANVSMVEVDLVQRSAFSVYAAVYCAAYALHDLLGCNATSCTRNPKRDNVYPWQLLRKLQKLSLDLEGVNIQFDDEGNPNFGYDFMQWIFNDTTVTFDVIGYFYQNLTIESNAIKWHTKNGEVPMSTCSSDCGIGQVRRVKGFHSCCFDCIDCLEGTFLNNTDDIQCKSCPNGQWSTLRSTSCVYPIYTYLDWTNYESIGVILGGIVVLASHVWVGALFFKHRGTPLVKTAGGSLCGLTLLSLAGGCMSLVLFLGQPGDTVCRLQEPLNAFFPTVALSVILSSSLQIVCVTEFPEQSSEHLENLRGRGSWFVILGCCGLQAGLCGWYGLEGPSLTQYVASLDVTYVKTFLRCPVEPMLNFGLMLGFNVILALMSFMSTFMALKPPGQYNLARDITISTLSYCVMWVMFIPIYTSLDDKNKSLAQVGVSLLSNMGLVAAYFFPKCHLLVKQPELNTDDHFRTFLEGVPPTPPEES

zfT1R2b/zfT1R3 = target: T4, zfT1R2b/zfT1R3 (Danio rerio, UniProt A4PHQ8+Q2MHK9, Q2MHK9:Y247H); test: as above
T4 construct: gene tas1r2.2; entire coding regions, stably co-expressed with chimeric G-protein G16gust44 in Flp-In 293 cells; heterodimer; T1R3 clone Y247H (C741T); with Taste receptor type 1 member 3
T4 sequence (A4PHQ8 18-823): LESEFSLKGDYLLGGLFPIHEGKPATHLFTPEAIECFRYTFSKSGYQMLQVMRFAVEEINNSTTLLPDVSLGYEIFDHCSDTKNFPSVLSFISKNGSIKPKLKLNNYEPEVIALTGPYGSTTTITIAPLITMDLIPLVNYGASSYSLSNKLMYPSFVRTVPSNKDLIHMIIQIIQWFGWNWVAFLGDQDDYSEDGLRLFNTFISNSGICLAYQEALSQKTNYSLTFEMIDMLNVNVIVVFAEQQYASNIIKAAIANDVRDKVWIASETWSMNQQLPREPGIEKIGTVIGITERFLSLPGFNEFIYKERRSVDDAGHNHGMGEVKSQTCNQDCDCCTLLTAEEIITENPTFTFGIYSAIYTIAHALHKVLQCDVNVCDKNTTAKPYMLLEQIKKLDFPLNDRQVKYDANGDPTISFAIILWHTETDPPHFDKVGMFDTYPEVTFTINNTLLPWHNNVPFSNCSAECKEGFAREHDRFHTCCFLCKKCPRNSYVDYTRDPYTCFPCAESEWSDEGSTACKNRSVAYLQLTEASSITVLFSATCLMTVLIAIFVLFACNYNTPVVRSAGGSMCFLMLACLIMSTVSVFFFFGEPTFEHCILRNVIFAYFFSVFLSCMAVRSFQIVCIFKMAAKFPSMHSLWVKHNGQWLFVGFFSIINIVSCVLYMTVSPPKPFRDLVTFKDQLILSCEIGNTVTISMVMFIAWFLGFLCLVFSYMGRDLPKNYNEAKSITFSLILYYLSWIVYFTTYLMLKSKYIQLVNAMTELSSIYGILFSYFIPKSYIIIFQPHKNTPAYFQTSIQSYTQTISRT
T4 sequence (Q2MHK9 25-850 Y247H): T3 sequence (Q2MHK9 25-850 Y247H)

mfT1R2c/mfT1R3 = target: T5, mfT1R2c/mfT1R3 (Oryzias latipes, UniProt Q2MHK2+Q2MHK3, Q2MHK3:V394L); test: cell-based
T5 construct: gene TAS1R2c
T5 sequence (Q2MHK2 entry or part of it): as the sequence (Q2MHK2 entry or part of it) above
T5 sequence (Q2MHK3 entry or part of it V394L): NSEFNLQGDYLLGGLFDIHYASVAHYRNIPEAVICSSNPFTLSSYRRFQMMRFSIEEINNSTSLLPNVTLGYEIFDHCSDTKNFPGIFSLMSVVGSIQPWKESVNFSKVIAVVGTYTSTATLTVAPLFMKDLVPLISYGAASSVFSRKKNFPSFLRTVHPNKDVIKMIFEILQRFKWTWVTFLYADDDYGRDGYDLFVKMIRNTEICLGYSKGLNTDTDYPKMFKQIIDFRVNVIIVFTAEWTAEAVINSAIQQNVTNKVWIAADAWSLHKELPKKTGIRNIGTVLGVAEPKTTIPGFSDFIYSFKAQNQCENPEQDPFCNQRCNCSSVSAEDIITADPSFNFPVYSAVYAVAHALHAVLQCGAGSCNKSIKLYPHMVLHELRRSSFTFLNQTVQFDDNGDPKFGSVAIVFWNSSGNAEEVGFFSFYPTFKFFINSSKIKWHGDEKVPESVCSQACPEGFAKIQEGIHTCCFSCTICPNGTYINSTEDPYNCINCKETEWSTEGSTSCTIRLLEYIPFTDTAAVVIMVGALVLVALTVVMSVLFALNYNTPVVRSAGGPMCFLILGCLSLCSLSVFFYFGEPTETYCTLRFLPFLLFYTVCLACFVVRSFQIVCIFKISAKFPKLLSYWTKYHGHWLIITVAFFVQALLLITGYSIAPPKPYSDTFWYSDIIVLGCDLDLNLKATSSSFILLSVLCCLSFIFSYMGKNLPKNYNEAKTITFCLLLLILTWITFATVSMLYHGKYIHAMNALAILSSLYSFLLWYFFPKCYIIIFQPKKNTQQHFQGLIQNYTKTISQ

EC50 (mfT1R2a/mfT1R3) [µM] | EC50 (mfT1R2b/mfT1R3) [µM] | EC50 (zfT1R2a/zfT1R3) [µM] | EC50 (zfT1R2b/zfT1R3) [µM] | EC50 (mfT1R2c/mfT1R3) [µM] | SMILES
1230 ± 70 | 1750 ± 140 | 220 ± 18 | 2030 ± 150 |  | C[C@H](N)C(=O)O [L-alanine]
58.8 ± 7.6 |  |  |  |  | NC(=O)CC[C@H](N)C(=O)O [L-glutamine]
 | 3050 ± 220 | 164 ± 36 | 1720 ± 350 | 4.43 ± 0.38 | O=C(O)[C@@H]1CCCN1 [L-proline]
